“Also recorded” adds a separate entry of the source.
Key:
[1] = test system: hepatocellular carcinoma (HepG2); assay: In vitro antiproliferative activity, HepG2; format: cell-based, human; details: HepG2 cells
Experimental: (§1) Antiproliferative activity of compounds 11a−11c, 12a−12c, 13a−13c, 14a−14c, 15a−15c, 16a, 23a−23c, 24a−24c, 25a−25c, 34a−34c and 35a−35c was evaluated in vitro on four human tumor cell lines (American Type Culture Collection, Manassas, VA, USA): metastatic colorectal adenocarcinoma (SW620), ductal pancreatic adenocarcinoma (CFPAC-1), hepatocellular carcinoma (HepG2) and cervical carcinoma (HeLa) as well as normal skin fibroblasts (HFF).

[2] = test system: normal skin fibroblasts (HFF); assay: Cytotoxicity on non-tumor cells, HFF; format: cell-based, human
Experimental: as §1

[3] = test system: MDCKII-hMDR1 cells; assay: Permeability and P-gp substrate assessment in MDCKII-hMDR1 cell monolayer; format: in vitro ADME, canine; details: for Permeability classification: MDCKII-hMDR1, in words; for Efflux Ratio (BA/AB) / Papp (AB) / Papp (BA): without P-gp inhibitor; for Papp (AB) / Papp (BA): 10 µM, 60 min
Experimental: The Madin-Darby canine kidney cells with overexpressed human multidrug-resistant gene (MDCKII-hMDR1) have been frequently used to study bidirectional transport of compounds and assess P-gp substrate potential. Apparent permeability (Papp) values were determined from the amount permeated through the MDCKII-hMDR1 cell monolayer in both the apical-basolateral (AB) and basolateral-apical (BA) direction.
MDCKII-hMDR1 cell monolayer was used for determination of permeability and P-gp substrate assessment. MDCKII-hMDR1 cells (Solvo Biotechnology, Szeged, Hungary) were grown in the controlled atmosphere (37 °C, 95% humidity, 5% CO2) in MDCK cell culture medium containing Dulbecco’s Modified Eagle Medium (DMEM) + 10% Fetal bovine serum (FBS, inactivated) + 1% glutamax-100 + 1% antibiotic/antimycotic + 1% of Non-essential amino acids Minimum Essential Medium (MEM NEAA). Cultures were split every 3–4 days using 0.05% Trypsin-EDTA. Cells were seeded 4 days prior to the experiment in concentration of 0.3 × 10^6 cells mL^−1 and cultured in CO2 incubator. On the experiment day, cell monolayers were washed with Dulbecco’s phosphate buffer saline (D-PBS) and equilibrated for 45 min in CO2 incubator in D-PBS containing 1% DMSO (1% v/v) with or without Elacridar (2 µM). Compounds, in final concentration of 10 µM, were prepared in transport medium containing Lucifer yellow (100 µM), with DMSO contentment of 1% (v/v) and in the presence and without Elacridar. Lucifer yellow calibration curve was prepared by serial dilution (12 points, with 100 µM as the highest point). Monolayer integrity was examined by fluorescent measurement on a Microplate reader Infinite F500 (Tecan) by using an excitation of 485 nm and emission of 530 nm. Experiment was started by applying the solutions containing test compounds to apical and basolateral side of the cell monolayer. Starting compound concentration (C0) was sampled at the start of the experiment and apical and basolateral compartments were sampled after incubation at 37 °C with gentle shaking for 60 min. Compound were tested in duplicate. Amprenavir was used as a control with low permeability and as a P-gp substrate without inhibitor presence, turning into a highly permeable compound with the inhibitor present.
Samples were analyzed on an ABSciex API 4000 Triple Quadrupole Mass Spectrometer (Sciex, Division of MDS Inc., Toronto, ON, Canada) coupled to a UHPLC Nexera X2 (Shimadzu, Kyoto, Japan). Samples (1 µL) were injected onto a reversed phase HPLC column Luna Omega Polar C18, 30 × 2.1 mm i.d., 1.6 µm particle size (Phenomenex) which was kept at 50 °C. Aqueous solution was 0.1% formic acid in deionized water and the organic mobile phase was […]. Flow rate was kept at 0.7 mL min^−1 for all measurements. Fast-gradient elution was as follows: 2% of organic mobile phase through 0.15 min, from 2 to 95% of organic mobile phase (0.15−0.7 min), 95% of organic mobile phase (0.7−1.1 min), from 95 to 2% of organic mobile phase (1.1−1.11 min), and re-equilibration with 98% of aqueous mobile phase (1.11−1.5 min). Positive ion mode with turbo spray, an ion source temperature of 550 °C and a dwell time of 75 ms were utilized for mass spectrometric detection. Quantitation was performed using multiple reaction monitoring (MRM) at the specific transition corresponding to the compound of interest. Warfarin was used as an internal standard. The ratios between compound and internal standard peak areas were used instead of real compound concentration. Apparent permeability coefficient, Papp (nm s^−1) values were calculated by using the following Equation (1):Papp [nm s^−1] = (dQ/dT) × (1/C0) × (1/A)(1) where: dQ/dT = permeability rate; C0 = initial concentration in donor compartment; A = surface area of the cell monolayer (0.7 cm^2). […]

[4] = Metabolic stability in mouse liver microsomes; format: in vitro ADME; details: for t1/2: mouse liver microsomes, 1 µM; for In Vivo CLh / In Vivo CLh (% LBF): mouse; for In Vivo CLh: predicted in vivo hepatic clearance; for In Vivo CLh (% LBF): predicted, % of liver blood flow
Experimental: (§2) Metabolic stability of compounds was assessed in human and mouse liver microsomes (Corning, Tewksbury, MA, USA). Compounds, in final concentration of 1 µM, were incubated in phosphate buffer (50 mM, pH 7.4) for 60 min at 37 °C together with liver microsomes and NADPH generating system (nicotinamide adenine dinucleotide phosphate (NADP, 0.5 mM), glucose-6-phosphate (G6P, 5 mM), glucose-6-phosphate dehydrogenase (1.5 U mL^−1) and magnesium chloride (0.5 mM)). Also, compounds were incubated without the presence of NADPH cofactor, as a buffer stability control. Metabolic activity of liver microsomes was verified by including testosterone and propranolol as positive controls, as well as caffeine as a negative control. Sampling was performed at six time points (0, 10, 20, 30, 45 and 60 min), followed by reaction termination by addition of acetonitrile/methanol mixture (2:1, v/v) containing dicofenac as internal standard. Samples were analyzed as previously described for samples from permeability assay. The in vitro half-life (t1/2) was calculated from the slope of the linear regression by plotting ln % remaining of parent compound against incubation time. In vitro intrinsic clearance, CLint was calculated from half-life using following Equation (3):(3) CLint [µL min^−1 mg^−1]=ln2/t1/2×mL per incubation/mg protein per incubation where 52.5 mg protein/g liver is used as a constant.
(§3) Predicted in vivo hepatic clearance, in vivo CLh was calculated as follows:(4) in vivo CLh [mL min^−1 kg^−1]=CLint×(mg protein/g liver)×Q×(LW/BW) /Q+(CLint×(mg protein/g liver)×(LW/BW)) where: LW/BW = liver weight/body weight [g kg^−1]; 25.7 (human), 87.5 (mouse); Q = LBF = liver blood flow [mL min^−1 kg^−1]; 21/1.26 (human), 131/7.86 (mouse).
(§4) Predicted in vivo hepatic clearance can be expressed as %LBF and calculated as follows:(5) in vivo CLh [%LBF]=in vivo CLh/LBF×100

[5] = Metabolic stability in human liver microsomes; format: in vitro ADME; details: for t1/2: 1 µM; for In Vivo CLh / In Vivo CLh (% LBF): human; for In Vivo CLh: predicted in vivo hepatic clearance; for In Vivo CLh (% LBF): predicted, % of liver blood flow
Experimental: as §2, §3, §4

[6] = Chrom logD determination (fast-gradient HPLC); details: pH 7.4
Experimental: The distribution coefficient Chrom logD, a parameter used to assess the lipophilicity of compounds [36, 37], was determined for novel purine and purine isosteres with a ferrocene motif as shown in Table 1.
The distribution coefficient, Chrom logD, was determined from compounds’ gradient retention times by employing a high-performance liquid chromatography method with fast acetonitrile gradient. Compounds were prepared for analysis in final concentration of 1.25 mM by dilution of 10 mM stock solutions in DMSO with acetonitrile. Aqueous mobile phase was 50 mM ammonium acetate adjusted with ammonia solution to pH 7.4 and the organic mobile phase was acetonitrile. A reversed phase HPLC column Luna C18, 50 × 3 mm i.d., 5 µm particle size (Phenomenex, Torrance, CA, USA) was used for analysis. Sample injection volume was 2 µL and the flow rate was 1 mL min^−1. All compounds were analysed in duplicates. Fast-gradient elution was as follows: from 0 to 100% of acetonitrile (0−3 min), 100% of acetonitrile (3.0−3.5 min), from 100 to 0% of acetonitrile (3.5−3.7 min), and re-equilibration with 100% of aqueous mobile phase (3.7−5.0 min). All measurements were performed on an HPLC-DAD instrument Agilent 1100 Series (Agilent Technologies, Santa Clara, CA, USA) coupled with a mass spectrometer Micromass Quattro API (Waters, MA, USA). MassLynx software, version 4.1 (Waters, Manchester, UK) was used for data acquisition and processing. Before compound analysis, a calibration step was performed. A set of standard compounds with literature CHI values [36] were plotted against gradient retention times to obtain a calibration equation, which was used to determine CHI value from the compounds’ retention times.

IC50 [1] [µM]	Permeability classification [3]	Efflux Ratio (BA/AB) [3]	Papp (AB) [3] [×10⁻⁶ cm/s]	Papp (BA) [3] [×10⁻⁶ cm/s]	t1/2 [4] [min]	In Vivo CLh [4] [mL/min/kg]	In Vivo CLh (% LBF) [4] [% LBF]	t1/2 ([5]; human liver microsomes) [min]	In Vivo CLh [5] [mL/min/kg]	In Vivo CLh (% LBF) [5] [% LBF]	Chrom logD [6]	Structure (SMILES)	IC50 [2] [µM]	Metabolic stability classification ([5]; human liver microsomes, in words)
31.9 ± 4.32	moderate AB permeability	2.9	5.3	14.9	1.3	25.6	99	4.1	24.3	95	5.62	Clc1ncnc2c1ccn2Cc1cn(-[c-]2cccc2)nn1.[Fe+2].c1cc[cH-]c1 [Compound 11c, 4-Chloro-7-[1-(1-ferrocenyl-1,2,3-triazol-1-yl)methyl]-7H-pyrrolo[2,3-d]pyrimidine]	5.89 ± 1.88	
37.1 ± 1.84	moderate AB permeability	10.7	3.2	33.2	2.9	25.4	99	19.0	20.4	79	4.15	CC([c-]1cccc1)n1cc(Cn2cnc3ncnc(Cl)c32)nn1.[Fe+2].c1cc[cH-]c1 (stereo not shown) [Compound 15b, 6-Chloro-7-[1-(1-ferrocenyl-1-methylmethyl-1,2,3-triazol-4-yl)methyl]-7H-purine]	0.88 ± 1.06	

Structure (SMILES)	IC50 [1] [µM]	Permeability classification [3]	Efflux Ratio (BA/AB) [3]	Papp (AB) [3] [×10⁻⁶ cm/s]	Papp (BA) [3] [×10⁻⁶ cm/s]	t1/2 [4] [min]	In Vivo CLh [4] [mL/min/kg]	In Vivo CLh (% LBF) [4] [% LBF]	t1/2 ([5]; human liver microsomes) [min]	In Vivo CLh [5] [mL/min/kg]	In Vivo CLh (% LBF) [5] [% LBF]	Chrom logD [6]	IC50 [2] [µM]	Metabolic stability classification ([5]; human liver microsomes, in words)
Clc1ncnc2c1ncn2Cc1cn(C[c-]2cccc2)nn1.[Fe+2].c1cc[cH-]c1 [Compound 13a, 6-Chloro-9-[1-(1-ferrocenymethyl-1,2,3-triazol-4-yl)methyl]-9H-purine]	19.9 ± 5.12	moderate to high AB permeability; also recorded: good permeability	2.9	8.3	23.8	5.5	25.1	98	38.6	16.8	65	4.27	3.98 ± 0.17	good metabolic stability; also recorded: moderately stable; also recorded: moderate stability

Reference: article PMC7180452, “Purine and Purine Isostere Derivatives of Ferrocene: An Evaluation of ADME, Antitumor and Electrochemical Properties” (Molecules, 2020)
